Measured values from ChEMBL document CHEMBL1201862, “PubChem BioAssay data set” (2004).
Each block holds one compound with its values, some of them ahead of it. Calls of active or inactive are those of the source.

Assays:
[1] = molecular target: Mitogen-activated protein kinase 10 (Homo sapiens, UniProt P53779); assay: Dose response biochemical screening assay for inhibitors of c-Jun N-Terminal Kinase 3 (JNK3). [Related pubchem assays: 746 ]
[2] = A2780 ovarian cancer cell cytotoxicity, dose response, cytotoxicity control, plate reader, dry powder samples (AID 743046); format: functional, cell-based
[3] = cytotoxicity in COV434 cells, dose response, cytotoxicity control for PAX8 inhibitor project, cell-based, plate reader, dry powder, SA7 (AID 743145); format: functional
[4] = IGROV1 ovarian cancer cell cytotoxicity, dose response, PAX8 inhibitor project, plate reader, dry powder samples (AID 743043); format: functional, cell-based; conditions: IGROV-1
[5] = cytotoxicity dependent on PAX8, dose response, cell-based, plate reader, dry powder (AID 743049); format: functional
[6] = cells; format: functional, cell-based
[7] = human group III sPLA2 inhibitors, dose response, biochemical, QFRET, IC50 (AID 743457);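 note: green fluorescence rise as the enzyme cleaves BODIPY PC-A2 in liposomes; potency for inhibition of the enzyme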
[8] = HepG2 cell cytotoxicity, dose response, cytotoxicity control for Shn3 inhibitor project, CellTiter-Glo, cherry-picked (AID 624134); format: functional, cell-based
[9] = cytotoxicity in COV362 ovarian cancer cells, dose response, cytotoxicity control for PAX8 inhibitor project, cell-based, plate reader, dry powder, SA12 (AID 743144); format: functional
[10] = HEK293T cytotoxicity, dose response, cytotoxicity control for miR-122 modulator project, cell-based, activator set, cherry-pick (AID 720690); format: functional;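 note: HEK293T human cells scored for general mammalian cytotoxicity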
[11] = Shn3 3'UTR reporter inhibitors, dose response, cell-based, Clone20 osteoblasts, firefly luciferase, cherry-picked (AID 624132); format: functional;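 note: firefly luciferase luminescence from reporter carrying the Shn3 3'UTR in osteoblasts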
[12] = cytotoxicity toward NIH3T3 fibroblasts, dose response, counter-screen, cell-based, ATP luminescence, mouse fibroblasts (AID 2010); format: functional;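 note: cells exposed to compound for about 90 hours before reading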
[13] = PAX2 cell-based inhibition, dose response, selectivity assay for PAX8 inhibitor project, plate reader, dry powder samples (AID 743048); format: functional;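 note: HEK293 cells carrying a WT1 promoter luciferase reporter driven by expressed Pax2; potency is for inhibition of Pax2 driven reporter signal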
[14] = IOSE-T80 ovarian epithelial cell cytotoxicity, dose response, cytotoxicity control for PAX8 inhibitor project, plate reader, dry powder samples (AID 743045); format: functional, cell-based
[15] = cytotoxicity in OV-90 ovarian cancer cells, dose response, PAX8 inhibitor project, cell-based, plate reader, dry powder, SA8 (AID 743149); format: functional
[16] = PAX5 activity inhibitors, dose response, selectivity assay for PAX8 inhibitor project, cell-based, plate reader, dry powder samples (AID 743047); format: functional;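 note: HEK293 cells carrying a Pax5 driven CD19 promoter luciferase reporter; potency of inhibitors that lower reporter luminescence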
[17] = system: INS1; assay: beta cell apoptosis inhibitors, cytokine rescue, dose response, luminescence, retest (AID 449756); format: functional, cell-based; conditions: Rattus norvegicus, INS1;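 note: cell death triggered by IL-1 beta plus TNF-alpha plus IFN-gamma mixture; protective hits raise ATP signal compared with cytokine alone wells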
[18] = cells; format: functional, cell-based; remark: listed apart in the source
[19] = molecular target: Heat shock protein HSP 90-alpha (Homo sapiens, UniProt P07900); format: functional, organism-based
[20] = HEK293T cytotoxicity, dose response, cytotoxicity control for miR-122 modulator project, cell-based, inhibitor set, cherry-pick, set 2 (AID 720697); format: functional
[21] = cytotoxicity in OVCAR4 cells, dose response, cytotoxicity control for PAX8 inhibitor project, cell-based, plate reader, dry powder, SA11 (AID 743150); format: functional; conditions: OVCAR-4
[22] = inhibitors of intracellular T. cruzi replication, confirmation, NIH3T3 host cells, beta-gal luminescence (AID 2044); format: functional, cell-based;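 note: intracellular parasites grown in NIH/3T3 mouse fibroblasts as host cells; luminescent beta-galactosidase reporter signal from transgenic T. cruzi replicating inside host cells; inhibitors lower the luminescence signal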
[23] = control 3'UTR Renilla luciferase suppression, dose response, counter-screen for Shn3 inhibitor project, cell-based, Clone20-Shn3RL, cherry-picked (AID 624133); format: functional
[24] = NIH:OVCAR-3 ovarian cancer cell cytotoxicity, dose response, PAX8 inhibitor project, plate reader, dry powder samples (AID 743044); format: functional, cell-based
[25] = molecular target: Paired box protein Pax-8 (Homo sapiens, UniProt Q06710); assay: inhibitors of PAX8-driven TPO luciferase reporter, dose response, RMG-I cells, cherry-pick (AID 687027); format: functional, cell-based;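 note: luciferase reporter driven by Pax8 target thyroperoxidase promoter measured by SteadyGlo luminescence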
Sequence of Paired box protein Pax-8 (Q06710 whole entry): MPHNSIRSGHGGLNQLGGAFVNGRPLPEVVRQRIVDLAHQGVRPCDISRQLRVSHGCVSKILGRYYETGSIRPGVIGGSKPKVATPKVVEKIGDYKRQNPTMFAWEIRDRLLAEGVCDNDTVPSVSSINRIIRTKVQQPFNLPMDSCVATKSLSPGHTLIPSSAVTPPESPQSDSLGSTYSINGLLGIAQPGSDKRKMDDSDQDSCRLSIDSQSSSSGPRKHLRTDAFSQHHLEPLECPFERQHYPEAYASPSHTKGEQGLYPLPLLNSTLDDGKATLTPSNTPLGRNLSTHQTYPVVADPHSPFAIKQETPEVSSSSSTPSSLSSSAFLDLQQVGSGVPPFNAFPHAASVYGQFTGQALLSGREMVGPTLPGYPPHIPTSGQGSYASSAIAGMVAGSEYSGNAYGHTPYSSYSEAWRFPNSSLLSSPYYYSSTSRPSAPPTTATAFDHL

[26] = molecular target: Intestinal-type alkaline phosphatase (Mus musculus, UniProt P24822); assay: PubChem AID 488785; format: functional
Sequence of Intestinal-type alkaline phosphatase (Mus musculus, UniProt P24822) (P24822 whole entry): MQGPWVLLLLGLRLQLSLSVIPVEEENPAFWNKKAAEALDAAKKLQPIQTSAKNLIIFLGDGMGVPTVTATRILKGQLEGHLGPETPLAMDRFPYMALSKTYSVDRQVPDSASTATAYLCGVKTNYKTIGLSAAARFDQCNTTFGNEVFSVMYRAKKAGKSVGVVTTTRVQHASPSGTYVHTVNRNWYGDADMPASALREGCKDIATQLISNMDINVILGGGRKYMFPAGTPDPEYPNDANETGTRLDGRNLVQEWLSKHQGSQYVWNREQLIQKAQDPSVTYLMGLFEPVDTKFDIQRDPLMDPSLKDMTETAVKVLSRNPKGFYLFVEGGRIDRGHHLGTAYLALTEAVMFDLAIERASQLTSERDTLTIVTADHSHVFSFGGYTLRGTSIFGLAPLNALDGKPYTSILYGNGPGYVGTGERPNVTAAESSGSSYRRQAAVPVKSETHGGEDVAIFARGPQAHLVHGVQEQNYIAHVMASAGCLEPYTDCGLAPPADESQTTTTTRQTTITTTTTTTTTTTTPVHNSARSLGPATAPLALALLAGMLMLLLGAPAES

[27] = molecular target: T1, Alkaline phosphatase, tissue-nonspecific isozyme (Homo sapiens, UniProt P05186); assay: TNAP enzyme inhibition by screening hits, dose response, selectivity assay for mouse IAP inhibitor project, biochemical, human TNAP, uHTS hits (AID 488906); format: functional
T1 sequence (P05186 whole entry): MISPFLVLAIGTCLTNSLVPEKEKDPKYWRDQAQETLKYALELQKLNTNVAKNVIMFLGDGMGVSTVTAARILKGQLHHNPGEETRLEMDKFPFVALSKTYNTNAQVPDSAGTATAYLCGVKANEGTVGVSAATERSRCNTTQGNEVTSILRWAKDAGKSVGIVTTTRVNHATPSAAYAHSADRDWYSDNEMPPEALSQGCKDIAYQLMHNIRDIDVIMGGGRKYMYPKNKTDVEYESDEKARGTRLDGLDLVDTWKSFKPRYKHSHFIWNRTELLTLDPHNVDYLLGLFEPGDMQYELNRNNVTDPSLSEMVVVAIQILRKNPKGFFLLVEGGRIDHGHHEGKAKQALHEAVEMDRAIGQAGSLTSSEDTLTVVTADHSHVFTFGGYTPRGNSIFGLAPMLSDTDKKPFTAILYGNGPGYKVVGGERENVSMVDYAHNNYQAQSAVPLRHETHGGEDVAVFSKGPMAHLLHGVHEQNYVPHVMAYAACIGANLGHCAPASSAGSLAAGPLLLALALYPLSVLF

[28] = molecular target: RNA-editing ligase 1, mitochondrial (Trypanosoma brucei brucei, UniProt P86926); assay: TbREL1 ligase inhibitors, dose response, biochemical, fluorescence, Trypanosoma brucei (AID 1117295); format: functional
Sequence of RNA-editing ligase 1, mitochondrial (P86926 whole entry): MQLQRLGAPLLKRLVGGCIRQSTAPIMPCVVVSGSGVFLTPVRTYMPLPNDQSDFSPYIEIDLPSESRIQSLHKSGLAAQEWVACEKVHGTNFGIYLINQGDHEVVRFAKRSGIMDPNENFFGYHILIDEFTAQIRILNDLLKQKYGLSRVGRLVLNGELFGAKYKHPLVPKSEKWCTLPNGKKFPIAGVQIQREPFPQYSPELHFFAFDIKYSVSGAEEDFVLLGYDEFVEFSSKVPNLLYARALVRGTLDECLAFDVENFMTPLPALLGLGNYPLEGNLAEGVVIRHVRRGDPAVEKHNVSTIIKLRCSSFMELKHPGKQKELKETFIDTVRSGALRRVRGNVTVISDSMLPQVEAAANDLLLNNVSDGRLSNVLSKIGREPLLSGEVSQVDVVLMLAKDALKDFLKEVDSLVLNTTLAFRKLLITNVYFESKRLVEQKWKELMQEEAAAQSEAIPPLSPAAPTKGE

[29] = molecular target: Intestinal-type alkaline phosphatase (Homo sapiens, UniProt P09923); assay: inhibition of human intestinal alkaline phosphatase – biochemical, dose response (AID 488876); format: functional
Sequence of Intestinal-type alkaline phosphatase (Homo sapiens, UniProt P09923) (P09923 whole entry): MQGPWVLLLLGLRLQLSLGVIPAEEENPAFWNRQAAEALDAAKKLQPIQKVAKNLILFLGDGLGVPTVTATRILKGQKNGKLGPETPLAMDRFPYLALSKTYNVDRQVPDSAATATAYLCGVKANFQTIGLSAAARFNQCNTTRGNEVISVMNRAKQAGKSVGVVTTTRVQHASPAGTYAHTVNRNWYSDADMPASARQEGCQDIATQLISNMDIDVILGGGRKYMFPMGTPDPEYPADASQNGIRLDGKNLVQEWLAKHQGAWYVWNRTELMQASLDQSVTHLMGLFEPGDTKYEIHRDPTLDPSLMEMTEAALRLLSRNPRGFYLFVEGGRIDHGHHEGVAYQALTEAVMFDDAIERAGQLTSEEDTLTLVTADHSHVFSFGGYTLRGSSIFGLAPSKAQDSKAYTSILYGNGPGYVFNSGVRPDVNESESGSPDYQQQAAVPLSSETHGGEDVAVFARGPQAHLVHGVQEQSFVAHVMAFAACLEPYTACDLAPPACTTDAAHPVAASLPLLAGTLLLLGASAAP

[30] = molecular target: Melanin-concentrating hormone receptor 1 (Homo sapiens, UniProt Q99705); assay: Fluorescence-based counterscreen for antagonists of the G-protein coupled receptor 7 (GPR7): cell-based high throughput dose response assay to identify antagonists of the melanin-concentrating hormone receptor 1 (MCHR1).; format: functional
Sequence of Melanin-concentrating hormone receptor 1 (Q99705 whole entry): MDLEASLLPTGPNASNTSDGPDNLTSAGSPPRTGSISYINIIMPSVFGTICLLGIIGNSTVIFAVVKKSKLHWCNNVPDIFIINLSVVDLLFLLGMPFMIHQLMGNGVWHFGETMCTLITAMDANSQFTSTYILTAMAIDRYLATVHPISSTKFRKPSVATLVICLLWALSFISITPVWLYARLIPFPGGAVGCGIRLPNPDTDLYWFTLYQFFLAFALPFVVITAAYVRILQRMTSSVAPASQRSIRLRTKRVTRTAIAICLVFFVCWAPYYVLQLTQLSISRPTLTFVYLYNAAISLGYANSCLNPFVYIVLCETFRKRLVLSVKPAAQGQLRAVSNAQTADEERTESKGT

[31] = molecular target: T2, Neuropeptides B/W receptor type 1 (Homo sapiens, UniProt P48145); assay: Fluorescence-based dose response cell-based high throughput screening assay to identify antagonists of the G-protein coupled receptor 7 (GPR7). [Related pubchem assays: 1952 (Screening assay (GPR7 antagonists).), 1880 (Summary AID.)]; format: functional
T2 sequence (P48145 whole entry): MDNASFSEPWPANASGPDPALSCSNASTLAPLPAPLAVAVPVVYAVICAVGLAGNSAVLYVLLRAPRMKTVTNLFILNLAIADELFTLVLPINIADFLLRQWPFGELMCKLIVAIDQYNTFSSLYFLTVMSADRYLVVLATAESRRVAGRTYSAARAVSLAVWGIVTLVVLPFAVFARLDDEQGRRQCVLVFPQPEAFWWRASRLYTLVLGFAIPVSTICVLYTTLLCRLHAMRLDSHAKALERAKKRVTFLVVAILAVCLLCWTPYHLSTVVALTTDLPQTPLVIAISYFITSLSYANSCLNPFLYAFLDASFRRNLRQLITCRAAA

[32] = molecular target: Sphingosine 1-phosphate receptor 2 (Homo sapiens, UniProt O95136); assay: Dose Response Cell Based Assay for Agonists of the S1P2 Receptor. [Related pubchem assays: 729, 736, 843 ]; format: functional
[33] = molecular target: T3, Low molecular weight phosphotyrosine protein phosphatase (Homo sapiens, UniProt P24666); assay: LMPTP phosphatase inhibitors, dose response, biochemical, OMFP substrate, fluorescence intensity, set 2 (AID 743307); format: functional
T3 sequence (P24666 whole entry): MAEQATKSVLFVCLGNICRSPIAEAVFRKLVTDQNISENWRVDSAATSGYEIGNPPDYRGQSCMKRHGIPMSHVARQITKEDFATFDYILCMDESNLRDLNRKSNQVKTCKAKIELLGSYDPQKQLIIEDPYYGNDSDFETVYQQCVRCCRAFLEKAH

[34] = molecular target: T3, Low molecular weight phosphotyrosine protein phosphatase; assay: LMPTP phosphatase inhibitors, colorimetric pNPP readout, dose response, orthogonal assay, biochemical, absorbance, pNPP substrate, LMPTP-A isoform, set 2 (AID 743308); format: functional
[35] = A549 cell cytotoxicity, dose response, cytotoxicity control, CellTiter-Glo luminescence, dry powder, set 5 (AID 743158); format: functional, cell-based
[36] = HepG2 cell cytotoxicity, dose response, cytotoxicity control, ATP luminescence, dry powder, set 2 (AID 743129); format: functional, cell-based
[37] = Plasmodium falciparum Dd2 Sybr green parasite growth Measured in Cell-Based and Microorganism Combination System Using Plate Reader - 2153-01_Inhibitor_Dose_DryPowder_Activity_Set3.; format: functional
[38] = P. falciparum Dd2 growth inhibitors, dose response, SYBR Green, dry powder samples (AID 1159566); format: functional, cell-based;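 note: potency for growth inhibition with lower SYBR green DNA signal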
[39] = P. falciparum Dd2 growth inhibitors, dose response, SYBR Green, cherry-picked samples (AID 1159567); format: functional, cell-based
[40] = P. falciparum ATP4 D1247Y mutant growth inhibitors, dose response, NITD609-resistant line, SYBR Green, dry powder (AID 1159571); format: functional, cell-based;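 note: parasites synchronized at ring stage by sorbitol before testing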
[41] = P. falciparum 3D7-ScDHODH growth inhibitors, dose response, SYBR Green, dry powder samples (AID 1159570); format: functional, cell-based;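 note: parasite growth measured after 72 hours of compound exposure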
[42] = HepG2 cell cytotoxicity, dose response, cytotoxicity control, plate reader, dry powder samples (AID 1159569); format: functional, cell-based;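 note: inhibitor potency with signal falling toward the positive control level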
[43] = P. falciparum Dd2 growth inhibitors, dose response, SYBR Green, dry powder samples, set 9 (AID 1159568); format: functional, cell-based
[44] = molecular target: Phospholipase D1 (Homo sapiens, UniProt Q13393); assay: PLD1 Cellular Concentration Response Study.; format: functional
Sequence of Phospholipase D1 (Q13393 whole entry): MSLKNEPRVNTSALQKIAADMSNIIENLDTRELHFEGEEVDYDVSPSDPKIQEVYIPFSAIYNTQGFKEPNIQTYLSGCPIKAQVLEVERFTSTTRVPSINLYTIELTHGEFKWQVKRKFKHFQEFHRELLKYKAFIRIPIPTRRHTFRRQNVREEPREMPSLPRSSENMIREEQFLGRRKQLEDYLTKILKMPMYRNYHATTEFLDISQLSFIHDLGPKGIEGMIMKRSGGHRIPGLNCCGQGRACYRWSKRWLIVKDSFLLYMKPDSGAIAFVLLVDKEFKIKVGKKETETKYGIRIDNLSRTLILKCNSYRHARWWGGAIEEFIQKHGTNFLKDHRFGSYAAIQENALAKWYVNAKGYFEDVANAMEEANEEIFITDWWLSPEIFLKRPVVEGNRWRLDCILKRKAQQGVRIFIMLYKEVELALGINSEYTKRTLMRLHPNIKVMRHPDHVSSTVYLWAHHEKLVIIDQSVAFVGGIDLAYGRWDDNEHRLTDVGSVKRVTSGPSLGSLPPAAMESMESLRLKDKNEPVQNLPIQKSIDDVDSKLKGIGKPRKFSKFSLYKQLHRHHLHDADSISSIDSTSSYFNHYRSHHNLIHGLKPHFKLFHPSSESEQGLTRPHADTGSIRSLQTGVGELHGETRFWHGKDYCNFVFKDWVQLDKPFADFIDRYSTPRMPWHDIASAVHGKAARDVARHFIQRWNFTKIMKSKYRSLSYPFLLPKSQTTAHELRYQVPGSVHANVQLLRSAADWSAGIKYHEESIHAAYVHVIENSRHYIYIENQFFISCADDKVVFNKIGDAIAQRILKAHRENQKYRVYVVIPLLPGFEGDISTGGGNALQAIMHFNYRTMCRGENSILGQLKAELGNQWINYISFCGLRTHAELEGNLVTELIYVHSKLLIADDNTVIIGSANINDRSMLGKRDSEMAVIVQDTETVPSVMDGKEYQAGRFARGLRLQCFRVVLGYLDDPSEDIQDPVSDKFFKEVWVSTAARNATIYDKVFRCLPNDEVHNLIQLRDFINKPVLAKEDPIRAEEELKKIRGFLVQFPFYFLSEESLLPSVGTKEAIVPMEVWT

[45] = molecular target: Phospholipase D2 (Homo sapiens, UniProt O14939); assay: PLD2 Cellular Concentration Response Study.; format: functional
Sequence of Phospholipase D2 (O14939 whole entry): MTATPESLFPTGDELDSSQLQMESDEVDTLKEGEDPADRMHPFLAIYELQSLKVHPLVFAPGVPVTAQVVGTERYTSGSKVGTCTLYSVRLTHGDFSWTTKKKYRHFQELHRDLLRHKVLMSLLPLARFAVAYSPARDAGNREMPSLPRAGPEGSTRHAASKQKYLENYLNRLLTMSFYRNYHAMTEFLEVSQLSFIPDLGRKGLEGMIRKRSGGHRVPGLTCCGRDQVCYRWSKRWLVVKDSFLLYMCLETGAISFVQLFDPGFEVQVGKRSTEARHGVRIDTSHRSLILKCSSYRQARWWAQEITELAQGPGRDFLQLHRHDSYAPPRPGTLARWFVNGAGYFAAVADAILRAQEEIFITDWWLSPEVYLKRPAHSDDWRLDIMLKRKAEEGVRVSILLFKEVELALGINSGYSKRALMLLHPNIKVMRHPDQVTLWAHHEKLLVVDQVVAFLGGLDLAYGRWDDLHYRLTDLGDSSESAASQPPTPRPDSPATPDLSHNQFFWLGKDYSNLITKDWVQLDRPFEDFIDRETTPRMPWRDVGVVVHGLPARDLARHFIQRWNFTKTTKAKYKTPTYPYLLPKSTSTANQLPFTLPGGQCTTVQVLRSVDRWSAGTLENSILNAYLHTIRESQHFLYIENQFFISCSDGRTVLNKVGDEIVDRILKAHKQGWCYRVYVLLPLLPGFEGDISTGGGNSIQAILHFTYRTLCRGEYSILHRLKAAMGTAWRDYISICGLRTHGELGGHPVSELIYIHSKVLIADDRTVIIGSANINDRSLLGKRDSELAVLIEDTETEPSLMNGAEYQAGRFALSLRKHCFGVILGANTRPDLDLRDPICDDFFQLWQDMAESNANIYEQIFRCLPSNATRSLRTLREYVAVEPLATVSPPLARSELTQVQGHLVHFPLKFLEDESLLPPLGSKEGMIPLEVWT

[46] = Dose-response inhibition of insulin secretion in a rat insulinoma line at 5 mM glucose (AID 1117331); format: functional, cell-based; conditions: INS-1E
[47] = Glucagon-like peptide 1 release potency, NCI-H716 cell line, dose-response, half-maximal inhibitory concentration (AID 1117344); format: functional, cell-based
[48] = half-maximal inhibitory concentration for glucagon-like peptide-1 release, STC-1 cell line, dose-response (AID 1117345); format: functional, cell-based
[49] = HeLa 2N DNA content increase, dose response, cell-based, IC50 (AID 1117349); format: functional
[50] = HeLa 4N DNA content increase, dose response, cell-based, IC50 (AID 1117351); format: functional

Sequence of Mitogen-activated protein kinase 10 (P53779 whole entry): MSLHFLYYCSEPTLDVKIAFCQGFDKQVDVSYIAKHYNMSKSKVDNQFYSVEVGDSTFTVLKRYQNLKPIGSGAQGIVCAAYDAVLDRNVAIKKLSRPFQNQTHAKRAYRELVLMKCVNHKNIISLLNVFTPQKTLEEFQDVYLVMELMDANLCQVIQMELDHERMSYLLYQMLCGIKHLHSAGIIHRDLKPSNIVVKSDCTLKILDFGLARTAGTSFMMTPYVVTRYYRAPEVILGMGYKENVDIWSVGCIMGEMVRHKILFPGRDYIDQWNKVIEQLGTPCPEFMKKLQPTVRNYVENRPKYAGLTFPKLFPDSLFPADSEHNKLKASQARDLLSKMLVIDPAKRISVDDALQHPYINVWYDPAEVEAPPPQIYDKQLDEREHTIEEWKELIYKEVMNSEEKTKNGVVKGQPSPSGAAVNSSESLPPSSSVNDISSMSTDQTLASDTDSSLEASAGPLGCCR

IC50 [1]: > 31 µM (not active)
Compound: COC(=O)c1ccc(Cn2c(O)c(N=O)c3ccccc32)o1

Compound: CCCCC(=O)NC(c1ccccc1OC)c1ccc2cccnc2c1O (stereo not given)
AC50 [2]: 8.16 µM (active)
AC50 [3]: 6.89 µM (active)
AC50 [4]: 7.55 µM (active)
AC50 [5]: 20.1 µM (active)
EC50 [6]: > 350 µM (not active)
IC50 [7]: > 122 µM (inactive)
AC50 [8]: 2.55 µM (active)
AC50 [9]: 7.92 µM (active)
AC50 [10]: 3.36 µM (active)
AC50 [11]: 1.19 µM (active)
EC50 [12]: 1.27 µM (active)
AC50 [13]: 3.22 µM (active)
AC50 [14]: 5.77 µM (active)
AC50 [15]: 10.7 µM (active)
AC50 [16]: 3.51 µM (active)
AC50 [17]: 0.718 µM (active)
EC50 [18]: 6.29 µM (active)
AC50 [19]: 4.38 µM (active)
AC50 [20]: 2.22 µM (active)
AC50 [21]: 16.3 µM (active)
EC50 [22]: 0.435 µM (active)
AC50 [23]: 3.18 µM (active)
AC50 [24]: 4.87 µM (active)
AC50 [25]: 2.44 µM (active)

IC50 [26]: 0.485 µM (active)
IC50 [27]: > 100 µM (inactive)
IC50 [28]: 35.5 µM (inactive)
IC50 [29]: > 100 µM (inactive)
Compound: N#Cc1c(SCC(=O)Nc2nccs2)sc2c(O)cc(O)nc12

IC50 [30]: > 43.8 µM (not active)
IC50 [31]: > 43.8 µM (not active)
Compound: O=C(O)c1ccc(NCc2cccc(Br)c2)cc1

EC50 [32]: > 50 µM (not active)
Compound: C(=C\c1ccccc1)/CSc1nnc(-c2ccccc2)n1Cc1ccco1

IC50 [33]: 22 µM (inactive)
IC50 [34]: 21 µM (inactive)
Compound: Fc1ccc2nc(-c3ccccc3)cc(NCCCN3CCCCC3)c2c1

Compound: CCOC(=O)c1c(-c2ccc(C(C)(C)C)cc2)csc1NC(=O)CN1CCN(C)CC1
AC50 [35]: 21.4 µM (active)
AC50 [36]: 16.4 µM (active)

Compound: COc1ccccc1-c1ccc([C@@H]2[C@@H](C#N)N[C@@H]2CO)cc1
AC50 [37]: 6.32 µM (active)
AC50 [38]: 0.907 µM (active)
AC50 [39]: 3.02 µM (active)
AC50 [40]: 0.946 µM (active)
AC50 [41]: 3.22 µM (active)
AC50 [42]: > 100 µM (inactive)

Compound: C[C@H]1CCCCO[C@H](CN(C)S(=O)(=O)c2ccccc2)[C@@H](C)CN([C@@H](C)CO)C(=O)c2cc(NC(=O)Nc3ccc4c(c3)OCO4)ccc2O1
AC50 [43]: 2.22 µM (active)

Compound: O=C(NCCN1CCC2(CC1)C(=O)NCN2Cc1ccccc1)c1ccc2ccccc2c1
IC50 [44]: 8.26 µM (active)
IC50 [45]: 0.89 µM (active)

Compound: CC(COc1ccccc1)NN (stereo not given) [PHENOXYPROPAZINE]
IC50 [46]: > 33.3 µM (inactive)
IC50 [47]: > 40 µM (inactive)
IC50 [48]: 27.2 µM (inactive)

Compound: CC[C@]1(O)C[C@H]2CN(CCc3c([nH]c4ccccc34)[C@@](C(=O)OC)(c3cc4c(cc3OC)N(C=O)[C@H]3[C@@](O)(C(=O)OC)[C@H](OC(C)=O)[C@]5(CC)C=CCN6CC[C@]43[C@@H]65)C2)C1 [VINCRISTINE]
IC50 [49]: 0.0062 µM (active)
IC50 [50]: 0.0059 µM (active)
